System: myosin heavy chain β (β-MHC)
Conditions: 48 h, 10 µM
Method: Primary cardiomyocytes of suckling rats were isolated and cultured and inoculated on a cell culture plate. A drug stock solution was taken and separately added to cell wells according to a certain dilution ratio, and a final concentration was 10 µM. After half hour of drug action, a phenylephrine (PE) stock solution was added, and a final concentration of PE was 20 µM. After 48 hours of PE action, cell samples were collected for real-time quantitative PCR assay or cell area measurement.
Separation and plating of cardiomyocytes of rats: a certain number of SPF suckling rats were taken and placed in a clean bench according to an actual requirement for the number of cells, thoracic cavities were opened by scissors, hearts were separated, and the hearts were cut into tissue fragments with sterilized surgical scissors; Collagenase Type II (manufacturer: Sigma, article No.: C2-28-100MG) was added to a D-HANKS balanced salt buffer to prepare a 5 µg/mL enzyme digestion solution, and the tissue fragments of hearts were continuously digested for three times in a 37 °C constant-temperature water bath box; about 2 mL of the enzyme digestion solution was added for the first time, a supernatant was discarded after digestion, centrifugation and precipitation of cardiomyocytes and tissue fragments, about 4 mL of the enzyme digestion solution was independently added for the second time and the third time to continue digestion, a supernatant was remained each time, DMEM containing 10% FBS with the same volume as the digestion solution in the supernatant was immediately added to neutralize digestive enzymes, the supernatants for the second time and the third time were combined and centrifuged, a supernatant was discarded, an appropriate amount of DMEM containing 10% FBS was added to resuspend the cardiomyocytes, the cardiomyocytes were inoculated in a 100 mm culture plate and subjected to differential adhesion in a constant-temperature cell incubator for 2 h, and a supernatant was taken for cell count.
A 24-well plate precoated with 1% gelatin was taken and plated at 1×10^5 cells/well, 500 µL of a 10% FBS+DMEM medium was contained in each well, and cells were cultured in a 37 °C constant-temperature cell incubator for 24 h. Different compounds were independently prepared into a 100 mM mother liquor with DMSO and gradient diluted with a 10% FBS+DMEM medium to prepare a 10 µM final solution of the compound containing 0.5% DMSO. The medium in the 24-well plate was discarded and replaced with a 500 µL/well medium containing a 10 µM compound, and three replicate wells and a negative control well were set for each compound. After 0.5 hours of drug action, PE (manufacturer: Meilun Biotechnology; article No.: MB1602) with a final concentration of 20 µM was added to each well, and no PE was added to the negative control wells; after 48 hours of PE action, sample detection was performed.
Expression levels of genes related to cardiomyocyte hypertrophy was analyzed via real-time quantitative PCR detection of mRNA level of atrial natriuretic peptide (ANP) and myosin heavy chain β (β-MHC). The steps include extraction of total RNA of cells, reverse transcription synthesis of cDNA and real-time quantitative PCR assay.
Based on real-time quantitative PCR detection of an mRNA level of ANP of cardiomyocytes, a drug with a potential of anti-cardiomyocyte hypertrophy was preliminarily screened and verified with an mRNA level of another hypertrophy gene β-MHC using a statistical method One-way ANOVA and statistical software GraphPad Prism.

CC(C)(O)c1ccc(CC#N)cc1-c1ccc2[nH]cnc2c1 [Formula II-43, 2-(4-(2-hydroxypropan-2-yl)-3-(1H-benzimidazol-5-yl)phenyl)acetonitrile]
Mean (real-time quantitative PCR validation results of cardiomyocyte β-MHC): 1.21

CCCc1cc(C#N)c(CO)c(-c2ccc3[nH]c(C)nc3c2)c1 [Formula II-120, 2-(hydroxymethyl)-3-(2-methyl-1H-benzimidazol-5-yl)-5-propylbenzonitrile]
Mean (real-time quantitative PCR validation results of cardiomyocyte β-MHC): 1.45

CN(C)C(=O)c1cc(C#N)c(CO)c(-c2ccc3[nH]cnc3c2)c1 [Formula II-129, 3-cyano-4-(hydroxymethyl)-N,N-dimethyl-5-(1H-benzimidazol-5-yl)benzamide]
Mean (real-time quantitative PCR validation results of cardiomyocyte β-MHC): 1.34

CC(C)(O)c1c(C#N)cc(C(N)=O)cc1-c1ccc2[nH]cnc2c1 [Formula II-30, 3-cyano-4-(2-hydroxypropan-2-yl)-5-(1H-benzimidazol-5-yl)benzamide]
Mean (real-time quantitative PCR validation results of cardiomyocyte β-MHC): 1.21

NC(=O)c1ccc(O)c(-c2ccc3[nH]cnc3c2)c1 [Formula I-27, 4-hydroxy-3-(1H-benzimidazol-5-yl)benzamide]
Mean (real-time quantitative PCR validation results of cardiomyocyte β-MHC): 1.27

CC(O)c1ccc(C(=O)O)cc1-c1ccc2[nH]cnc2c1 (stereo not shown) [Formula II-82, 4-(1-hydroxyethyl)-3-(1H-benzimidazol-5-yl)benzoic acid]
Mean (real-time quantitative PCR validation results of cardiomyocyte β-MHC): 1.15

CC(O)c1c(C#N)cc(C(N)=O)cc1-c1ccc2[nH]cnc2c1 (stereo not shown) [Formula II-78, 3-cyano-4-(1-hydroxyethyl)-5-(1H-benzimidazol-5-yl)benzamide]
Mean (real-time quantitative PCR validation results of cardiomyocyte β-MHC): 1.35

Cc1nc2cc(-c3cc(CC#N)cc(F)c3O)ccc2[nH]1 [Formula I-19, 2-(3-fluoro-4-hydroxy-5-(2-methyl-1H-benzimidazol-5-yl)phenyl)acetonitrile]
Mean (real-time quantitative PCR validation results of cardiomyocyte β-MHC): 1.26

C=CCc1ccc(C(C)O)c(-c2ccc3[nH]c(C)nc3c2)c1 (stereo not shown) [Formula II-64, 1-(4-allyl-2-(2-methyl-1H-benzimidazol-5-yl)phenyl)ethane-1-ol]
Mean (real-time quantitative PCR validation results of cardiomyocyte β-MHC): 1.22

CN(C)C(=O)c1cc(F)c(CO)c(-c2ccc3[nH]cnc3c2)c1 [Formula II-128, 3-fluoro-4-(hydroxymethyl)-N,N-dimethyl-5-(1H-benzimidazol-5-yl)benzamide]
Mean (real-time quantitative PCR validation results of cardiomyocyte β-MHC): 1.27

Cc1nc2cc(-c3cc(C(=O)O)ccc3C(C)(C)O)ccc2[nH]1 [Formula II-10, 4-(2-hydroxypropan-2-yl)-3-(2-methyl-1H-benzimidazol-5-yl)benzoic acid]
Mean (real-time quantitative PCR validation results of cardiomyocyte β-MHC): 1.27

COC(=O)c1cc(C#N)c(O)c(-c2ccc3[nH]cnc3c2)c1 [Formula I-38, methyl 3-cyano-4-hydroxy-5-(1H-benzimidazol-5-yl) benzoate]
Mean (real-time quantitative PCR validation results of cardiomyocyte β-MHC): 1.26

Cc1nc2cc(-c3cc(F)ccc3C(C)O)ccc2[nH]1 (stereo not shown) [Formula II-49, 1-(4-fluoro-2-(2-methyl-1H-benzimidazol-5-yl)phenyl)ethane-1-ol]
Mean (real-time quantitative PCR validation results of cardiomyocyte β-MHC): 1.36

COC(=O)c1cc(C#N)c(C(C)O)c(-c2ccc3[nH]c(C)nc3c2)c1 (stereo not shown) [Formula II-63, methyl 3-cyano-4-(1-hydroxyethyl)-5-(2-methyl-1H-benzimidazol-5-yl) benzoate]
Mean (real-time quantitative PCR validation results of cardiomyocyte β-MHC): 1.36

CCCc1ccc(O)c(-c2ccc3[nH]cnc3c2)c1 [Formula I-45, 2-(1H-benzimidazol-5-yl)-4-propylphenol]
Mean (real-time quantitative PCR validation results of cardiomyocyte β-MHC): 1.39

Cc1nc2cc(-c3cc(CC#N)ccc3O)ccc2[nH]1 [Formula I-18, 2-(4-hydroxy-3-(2-methyl-1H-benzimidazol-5-yl)phenyl)acetonitrile]
Mean (real-time quantitative PCR validation results of cardiomyocyte β-MHC): 1.18

CC(C)(O)c1c(C#N)cc(C(=O)O)cc1-c1ccc2[nH]cnc2c1 [Formula II-36, 3-cyano-4-(2-hydroxypropan-2-yl)-5-(1H-benzimidazol-5-yl)benzoic acid]
Mean (real-time quantitative PCR validation results of cardiomyocyte β-MHC): 1.41

C=CCc1cc(C#N)c(C(C)(C)O)c(-c2ccc3[nH]cnc3c2)c1 [Formula II-42, 5-allyl-2-(2-hydroxypropan-2-yl)-3-(1H-benzimidazol-5-yl)benzonitrile]
Mean (real-time quantitative PCR validation results of cardiomyocyte β-MHC): 1.48

O=C(O)c1ccc(O)c(-c2ccc3[nH]cnc3c2)c1 [Formula I-33, 4-hydroxy-3-(1H-benzimidazol-5-yl)benzoic acid]
Mean (real-time quantitative PCR validation results of cardiomyocyte β-MHC): 1.22

Cc1nc2cc(-c3cc(C(=O)N(C)C)cc(C#N)c3C(C)(C)O)ccc2[nH]1 [Formula II-9, 3-cyano-4-(2-hydroxypropan-2-yl)-N,N-dimethyl-5-(2-methyl-1H-benzimidazol-5-yl)benzamide]
Mean (real-time quantitative PCR validation results of cardiomyocyte β-MHC): 1.18

NC(=O)c1cc(F)c(O)c(-c2ccc3[nH]cnc3c2)c1 [Formula I-28, 3-fluoro-4-hydroxy-5-(1H-benzimidazol-5-yl)benzamide]
Mean (real-time quantitative PCR validation results of cardiomyocyte β-MHC): 1.07

COC(=O)c1cc(F)c(CO)c(-c2ccc3[nH]c(C)nc3c2)c1 [Formula II-110, methyl 3-fluoro-4-(hydroxymethyl)-5-(2-methyl-1H-benzimidazol-5-yl) benzoate]
Mean (real-time quantitative PCR validation results of cardiomyocyte β-MHC): 1.34

C=CCc1cc(C#N)c(C(C)(C)O)c(-c2ccc3[nH]c(C)nc3c2)c1 [Formula II-18, 5-allyl-2-(2-hydroxypropan-2-yl)-3-(2-methyl-1H-benzimidazol-5-yl)benzonitrile]
Mean (real-time quantitative PCR validation results of cardiomyocyte β-MHC): 1.19

CCCc1ccc(O)c(-c2ccc3[nH]c(C)nc3c2)c1 [Formula I-21, 2-(2-methyl-1H-benzimidazol-5-yl)-4-propylphenol]
Mean (real-time quantitative PCR validation results of cardiomyocyte β-MHC): 1.05

Cc1nc2cc(-c3cc(C(N)=O)cc(C#N)c3C(C)O)ccc2[nH]1 (stereo not shown) [Formula II-54, 3-cyano-4-(1-hydroxyethyl)-5-(2-methyl-1H-benzimidazol-5-yl)benzamide]
Mean (real-time quantitative PCR validation results of cardiomyocyte β-MHC): 1.28

Cc1nc2cc(-c3cc(C(=O)N(C)C)cc(F)c3CO)ccc2[nH]1 [Formula II-104, 3-fluoro-4-(hydroxymethyl)-N,N-dimethyl-5-(2-methyl-1H-benzimidazol-5-yl)benzamide]
Mean (real-time quantitative PCR validation results of cardiomyocyte β-MHC): 1.25

CC(O)c1ccc(CC#N)cc1-c1ccc2[nH]cnc2c1 (stereo not shown) [Formula II-91, 2-(4-(1-hydroxyethyl)-3-(1H-benzimidazol-5-yl)phenyl)acetonitrile]
Mean (real-time quantitative PCR validation results of cardiomyocyte β-MHC): 1.57

Cc1nc2cc(-c3cc(C(N)=O)cc(C#N)c3CO)ccc2[nH]1 [Formula II-102, 3-cyano-4-(hydroxymethyl)-5-(2-methyl-1H-benzimidazol-5-yl)benzamide]
Mean (real-time quantitative PCR validation results of cardiomyocyte β-MHC): 1.28

CC(C)(O)c1ccc(F)cc1-c1ccc2[nH]cnc2c1 [Formula II-25, 2-(4-fluoro-2-(1H-benzimidazol-5-yl)phenyl)propane-2-ol]
Mean (real-time quantitative PCR validation results of cardiomyocyte β-MHC): 1.52

COC(=O)c1ccc(O)c(-c2ccc3[nH]c(C)nc3c2)c1 [Formula I-12, methyl 4-hydroxy-3-(2-methyl-1H-benzimidazol-5-yl) benzoate]
Mean (real-time quantitative PCR validation results of cardiomyocyte β-MHC): 1.19

CN(C)C(=O)c1cc(F)c(O)c(-c2ccc3[nH]cnc3c2)c1 [Formula I-31, 3-fluoro-4-hydroxy-N,N-dimethyl-5-(1H-benzimidazol-5-yl)benzamide]
Mean (real-time quantitative PCR validation results of cardiomyocyte β-MHC): 1.29

C=CCc1cc(F)c(O)c(-c2ccc3[nH]cnc3c2)c1 [Formula I-40, 4-allyl-2-(1H-benzimidazol-5-yl)-6-fluorophenol]
Mean (real-time quantitative PCR validation results of cardiomyocyte β-MHC): 1.28

Cc1nc2cc(-c3cc(C(=O)N(C)C)cc(C#N)c3C(C)O)ccc2[nH]1 (stereo not shown) [Formula II-57, 3-cyano-4-(1-hydroxyethyl)-N,N-dimethyl-5-(2-methyl-1H-benzimidazol-5-yl)benzamide]
Mean (real-time quantitative PCR validation results of cardiomyocyte β-MHC): 1.26

Cc1nc2cc(-c3cc(C(=O)O)cc(F)c3O)ccc2[nH]1 [Formula I-10, 3-fluoro-4-hydroxy-5-(2-methyl-1H-benzimidazol-5-yl)benzoic acid]
Mean (real-time quantitative PCR validation results of cardiomyocyte β-MHC): 1.14

Cc1nc2cc(-c3cc(CC#N)cc(F)c3CO)ccc2[nH]1 [Formula II-116, 2-(3-fluoro-4-(hydroxymethyl)-5-(2-methyl-1H-benzimidazol-5-yl)phenyl)acetonitrile]
Mean (real-time quantitative PCR validation results of cardiomyocyte β-MHC): 1.58

CCCc1ccc(CO)c(-c2ccc3[nH]cnc3c2)c1 [Formula II-142, (2-(1H-benzimidazol-5-yl)-4-propylphenyl)methanol]
Mean (real-time quantitative PCR validation results of cardiomyocyte β-MHC): 1.40

C=CCc1cc(F)c(C(C)(C)O)c(-c2ccc3[nH]c(C)nc3c2)c1 [Formula II-17, 2-(4-allyl-2-fluoro-6-(2-methyl-1H-benzimidazol-5-yl)phenyl)propane-2-ol]
Mean (real-time quantitative PCR validation results of cardiomyocyte β-MHC): 1.13

CCCc1cc(F)c(C(C)O)c(-c2ccc3[nH]cnc3c2)c1 (stereo not shown) [Formula II-95, 1-(2-fluoro-6-(1H-benzimidazol-5-yl)-4-propylphenyl)ethane-1-ol]
Mean (real-time quantitative PCR validation results of cardiomyocyte β-MHC): 1.24

C=CCc1cc(C#N)c(O)c(-c2ccc3[nH]cnc3c2)c1 [Formula I-41, 5-allyl-3-(1H-benzimidazol-5-yl)-2-hydroxybenzonitrile]
Mean (real-time quantitative PCR validation results of cardiomyocyte β-MHC): 1.37

CC(C)(O)c1c(F)cc(F)cc1-c1ccc2[nH]cnc2c1 [Formula II-26, 2-(2,4-difluoro-6-(1H-benzimidazol-5-yl)phenyl)propane-2-ol]
Mean (real-time quantitative PCR validation results of cardiomyocyte β-MHC): 1.42
